Here are results for 14 compounds from patent publication US12234238B2, “Antimicrobial compounds and methods of making and using the same” (BIOVERSYS AG, priority 2017, dated 2025).

Structures are written as SMILES. Where two headings read alike, the source gives them in different places.

Broadly, the MIC is the least concentration at which growth counts as inhibited. A word on the AUC(0-inf): it is the area under the concentration-time curve extrapolated to infinity. A high value points to more exposure. The Cmax is the peak of the concentration-time curve.

In data set [1] the test system is Staphylococcus aureus (S. aureus) 11540 strain. The data set is described as follows: standard microdilution assay to determine minimum inhibitory concentrations (MICs), S. aureus. The format is cell-based. In a few lines:
(§1)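 MICs by broth microdilution in 100 μl final volume following CLSI protocols, with reference strains as quality control. Results presented as +/− relative to a 16 micrograms/mL cutoff.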

The test system of data set [2] is Eschericia coli (E. coli) strain ATCC25922. Put plainly: standard microdilution assay to determine minimum inhibitory concentrations (MICs), E. coli. The note with it: Escherichia coli. The format is cell-based. In a few lines: as §1
Data set [3] in a line: Rat infusion study: clinical signs and IV plasma pharmacokinetics across infusion lengths. The format is in vivo. The note with it: male Sprague-Dawley rats; for Clinical Signs: 4 mg/kg jugular venous infusion, listed as Compound No. 34, 4 mg/kg; for AUC(0-inf) / Cmax / half-life: male, Sprague-Dawley, rat, plasma, iv, 4 mg/kg, 4 mg/kg IV. The source says:
Many pyrrolocytosines, including Compound No. 34, share an acute clinical syndrome, which manifests in as a Cmax-driven hemodynamic effect and is associated with immediate clinical signs such as labored breathing. Cmax is the peak concentration a molecule reaches in the plasma, in this case directly following intravenous administration, and is expressed generally in micrograms/milliliter. The syndrome is dose-dependent, meaning that the higher the amount of drug given, the more severe the effects. This is generally considered the limiting toxicity for the effected compounds of this class. Importantly, the efficacy for the pyrrolocytosines, including Compound No. 34, is not driven by the Cmax but rather by the AUC (Area-Under-the-plasma-drug-concentration-time-Curve), which is an expression of the total body exposure to the drug and is expressed generally in micrograms*hour/milliliter. In rat studies with several pyrrolocytosines, including Compound No. 34, it has been shown that increasing the length, or duration, of the intravenous administration effectively modulates or eliminates the clinical syndrome, depresses the concentration maximum, results in a short distribution half-life but still affords drug exposures necessary for efficacy.
As an example, a study conducted by PharmOptima under study number 2017-164 with Compound No. 34, compared the clinical signs and plasma drug concentration data across several infusion lengths: 10-minutes, which is the screening length at which the acute syndrome is observed, 1-hour, 2-hour, 3-hour and 24-hour. A total of 15 male Sprague-Dawley rats (275-300 grams) were used in the study, divided evenly across the 5 dosing regimens. The route of drug administration was via jugular venous infusion, using a syringe infusion pump. Compound No. 34 was formulated in phosphate-buffered mannitol, with a starting pH=6.5.
There was a clear decrease in Cmax as infusion length was increased. The intermediate dosing groups still achieved significant AUC, or drug exposures for efficacy, and particularly with the 3 h infusion itis clear that the dose can be increased to move the AUC higher while not approaching the Cmax associated with the severe end of the acute tolerability. The 24 h infusion is particularly compelling. It indicates the concentration can be titrated to achieve steady-state drug levels for efficacy while remaining well below the Cmax associated with clinical signs. […] In the end, this translates into a generous therapeutic window.

Regarding `C[C@H](N)CCCc1cc(Cl)c(F)c(-c2cc3cn(-c4ccc([C@@H]5CCC[C@@H](CCSC(=N)N)N5C)cc4)c(=O)nc3[nH]2)c1` [Compound 42], the MIC in data set [1] and in data set [2] was at most 16 µg/mL each time.

Take `N=C(N)SCC[C@@H]1CCC[C@@H](c2ccc(-n3cc4cc(C5C[C@@H](N)CN5)[nH]c4nc3=O)cc2)N1` (stereo partly drawn) [Compound 88]: the MIC in data set [1] and in data set [2] was at most 16 µg/mL in each case.

`CC(=O)c1cc(CCC[C@H](C)N)cc(-c2cc3cn(-c4ccc([C@@H]5CCC[C@@H](CCSC(=N)N)N5)cc4)c(=O)nc3[nH]2)c1` [Compound 92]: the MIC in data set [1] and in data set [2] was at most 16 µg/mL in each case.

As to `N=C(N)SCC[C@@H]1CCC[C@@H](c2ccc(-n3cc4cc(-c5cc(CCC[C@@H](N)COC(=O)c6ccccc6)cc(Cl)c5F)[nH]c4nc3=O)cc2)N1` [Compound 10], the MIC in data set [1] and in data set [2] was at most 16 µg/mL in each case.

For `C[C@H](N)CCCc1cc(Cl)c(F)c(-c2cc3cn(-c4ccc([C@@H]5CCC[C@@H](CCSC(=N)N)N5)cc4)c(=O)nc3[nH]2)c1` [Compound 34], the MIC in data set [1] and in data set [2] was at most 16 µg/mL in each case. Moreover, the “Clinical Signs” value in data set [3] (10-min infusion) is “significant labored breathing”; in data set [3] (1 h, 2 h and 3 h infusion groups), “minor signs of chewing and licking”; in data set [3] (24 h infusion), “no clinical signs and none”. Further, the AUC(0-inf) in data set [3] (10-min infusion) came to 22000 ng·h/mL; in data set [3] (1 h infusion) it was 14400 ng·h/mL; in data set [3] (2 h infusion) it was 14400 ng·h/mL; in data set [3] (3 h infusion) it was 9150 ng·h/mL; in data set [3] (24 h infusion), 11000 ng·h/mL. The Cmax in data set [3] (10-min infusion) was 23600 ng/mL; in data set [3] (1 h infusion) it was 8890 ng/mL; in data set [3] (2 h infusion), 8120 ng/mL; in data set [3] (3 h infusion), 3760 ng/mL; in data set [3] (24 h infusion) it was 560 ng/mL. Moreover, the half-life was 1.01 h in data set [3] (10-min infusion, read-out: T½ (h)-alpha (converted)); 0.91 h in data set [3] (1 h infusion, read-out: T½ (h)-alpha (converted)); 1.02 h in data set [3] (2 h infusion, read-out: T½ (h)-alpha (converted)); 0.99 h in data set [3] (3 h infusion, read-out: T½ (h)-alpha (converted)); 1.01 h in data set [3] (24 h infusion, read-out: T½ (h)-alpha (converted)); 15.2 h in data set [3] (first of two cells, infusion group(s) unclear (grid: 10-min), read-out: T½ (h)-terminal (converted)). The half-life in data set [3] (second of two cells, infusion group(s) unclear (grid: 1 h), read-out: T½ (h)-terminal (converted)) was 15.2 h.

Turning to `N=C(N)SCCCN1[C@H](CCSC(=N)N)CCC[C@H]1c1ccc(-n2cc3cc(-c4cc(CCC[C@@H](N)C5CC5)cc(Cl)c4F)[nH]c3nc2=O)cc1` [Compound 20], the MIC in data set [1] and in data set [2] was at most 16 µg/mL in each case.

Turning to `N=C(N)SCC[C@@H]1CCC[C@@H](c2ccc(-n3cc4cc(-c5cc(CCC[C@@H](N)C6CC6)cc(Cl)c5F)[nH]c4nc3=O)cc2F)N1` [Compound 25], the MIC in data set [1] and in data set [2] was at most 16 µg/mL in each case.

On to `CCc1cc(CCC[C@H](C)N)cc(-c2cc3cn(-c4ccc([C@@H]5CCC[C@@H](CCSC(=N)N)N5)cc4)c(=O)nc3[nH]2)c1Cl` [Compound 82], for which the MIC in data set [1] and in data set [2] was at most 16 µg/mL throughout.

On to `N=C(N)SCCCN1CCCC[C@H]1c1ccc(-n2cc3cc(-c4cc(CCC[C@@H](N)C5CC5)cc(Cl)c4F)[nH]c3nc2=O)cc1` [Compound 13], for which the MIC in data set [1] and in data set [2] was at most 16 µg/mL each time.

As for `N=C(N)SCC[C@@H]1CCC[C@@H](c2ccc(-n3cc4cc(-c5cc(CCC[C@@H](N)COc6ccccc6)cc(Cl)c5F)[nH]c4nc3=O)cc2)N1` [Compound 35], the MIC in data set [1] and in data set [2] was at most 16 µg/mL each time.

Consider `COc1ccc(OC[C@H](N)CCCc2cc(Cl)c(F)c(-c3cc4cn(-c5ccc([C@@H]6CCC[C@@H](CCSC(=N)N)N6)cc5)c(=O)nc4[nH]3)c2)cc1` [Compound 39], for which the MIC in data set [1] and in data set [2] was at most 16 µg/mL throughout.

As to `N[C@H](CCCc1cc(Cl)c(F)c(-c2cc3cn(-c4ccc([C@@H]5CCC[C@@H](CCSC6=NCCN6)N5)cc4)c(=O)nc3[nH]2)c1)C1CC1` [Compound 3], the MIC in data set [1] and in data set [2] was at most 16 µg/mL in each case.

`C[C@H](N)CCCN1CCC=C(c2cc3cn(-c4ccc([C@@H]5CCC[C@@H](CCSC(=N)N)N5)cc4)c(=O)nc3[nH]2)C1` [Compound 73]: the MIC in data set [1] and in data set [2] was at most 16 µg/mL throughout.

Consider `C[C@H](N)CCCc1cc(-c2cc3cn(-c4ccc([C@@H]5CCC[C@@H](CCSC(=N)N)N5)cc4)c(=O)nc3[nH]2)cc(C(C)(C)C)c1` [Compound 86], for which the MIC in data set [1] and in data set [2] was at most 16 µg/mL in each case.
